Measurements published in US20090149395A1, “NOVEL MACROCYCLIC POLYENE LACTAMS” (priority 2007, published 2009).
Values after ≈ are worked out from the molar mass of the structure shown. Like-named read-outs stand apart in the source and are kept apart here.

Experiments:
E. faecium E4So1 = experiment: MIC broth dilution; type: cell-based; details: Enterococcus faecium
MSSA (ATCC 13709) = experiment: MIC broth dilution; type: cell-based, Staphylococcus aureus
E. faecium (VRE JM89) = experiment: MIC broth dilution; type: cell-based; details: Enterococcus faecium
B. anthracis sterne = experiment: microbe, parasite or virus in culture; type: cell-based; details: Bacillus anthracis
MRSA NRS1 = experiment: MIC broth dilution; type: cell-based, Methicillin-resistant Staphylococcus aureus; details: Staphylococcus aureus
MRSA NRS108 = experiment: MIC broth dilution; type: cell-based, Methicillin-resistant Staphylococcus aureus; details: Staphylococcus aureus
E. faecium MG1953 = experiment: MIC broth dilution; type: cell-based; details: Enterococcus faecium
S. pneumoniae BAA225 = experiment: MIC broth dilution; type: cell-based; details: Streptococcus pneumoniae
B. subtilis 1A1 = experiment: MIC broth dilution; type: cell-based; details: Bacillus subtilis, 1A1, B. subtilis 1A1
[1] = system: NIH3T3 mouse embryonic fibroblasts; experiment: Mammalian cytotoxicity assay (CellTiter 96 AQueous One); type: cell-based; details: NIH3T3 cells, 24 hr, highest tested 16 μg/ml
Procedure: Mammalian cytotoxicity assays were performed using NIH3T3 mouse embryonic fibroblasts (ATCC CRL-1658), and cytotoxicity was measured using the CellTiter 96® AQueous One Solution Cell Proliferation Assay (Promega, Madison, Wis., Cat: G3582), according to the manufacturer's recommendations.
100× working stocks of 2-fold serial dilution of NOVO4 in DMSO were created in a 96 well format. The highest concentration of the 100× concentration (working stock) was prepared by adding […] of the stock solution of NOVO4 (10 mg/ml in DMSO) for every 0.68 μl of DMSO to well A02. 0.5 μl of this 100× stock was added for every 0.5 μl of DMSO in well A03 to create a total of 7 two-fold serial dilution series, from 1600 μg/ml to 25 μg/ml (from highest in well A02 to A08,). A DMSO control was also included (wells in column A01, and A12). […]
The plate was visually inspected under a dissecting microscope, and the absorbance at 490 nm was read using a Spectramax Plus Spectrophotometer, with wells A12, and B12 reserved as blanks. The signal of compound alone (well A11) was verified not to contribute to the absorbance at this wavelength. Next, 20 μl of the CellTiter 96® AQueous One Solution Cell Proliferation Assay (Promega, Madison, Wis., Cat: G3582) was added to each well, and the plate was read after 3 hr of incubation. […]

MRSA and VRE = experiment: Effect of serum on NOVO4 MIC; type: cell-based; details: MIC without serum compared to media with 10% calf bovine serum
Procedure: These studies follow the procedure for determining the MIC described above in Example 5. Briefly, two-fold serial dilution of the NOVO4 compound are added to the test cells of interest, MRSA and VRE, and the lowest concentration of compound that inhibits growth after a period of incubation is considered to be the MIC. To determine the effect of serum on the activity of NOVO4, MIC in the absence of serum is compared to MIC in media supplemented with 10% calf bovine serum (ATCC 30-2030).

E. faecalis (VRE BM4147) = experiment: MIC broth dilution; type: cell-based; details: Enterococcus faecalis
bacterial cells = experiment: Solid agar growth inhibition zone assay; type: cell-based; details: MHB agar, 5 μl spot, 16 hr to 24 hr incubation; strain not named
Procedure: This can be achieved in different assay format; bacteria growing on solid agar media or bacteria growing in broth such as for Example 5 and 6 (Minimal Inhibition Concentration).
For solid agar format, bacterial cells are first grown in a suitable media such as Mueller Hinton broth (MHB) until exponential phase (OD600<1.0). The cells are diluted back to OD600=0.02 in MHB, and evenly applied as a thin layer on the surface of a plate of solid growth media, such as MHB agar (about 0.1 ml onto a surface area of 100 cm^2). After the surface is dried, a 5 μl aliquot of a 2-fold serial dilution of NOVO4 (in 50% DMSO) is spotted onto the surface of the agar plate. After 16 hr to 24 hr of incubation, depending on the bacterial strain of interest, the diameter of zones of growth inhibition is measured.

human red blood cells = type: cell-based
Procedure: The effect of NOVO4 on the hemolysis of human red blood cells was also tested. A total of 10 ml of expired packed red blood cells from the blood bank was gently added to 80 ml of PBS (Phosphate buffered saline), and pelleted at 1000 g for 5 minutes at 4° C. The upper phase and buffy layer (white blood cells) were removed. The cells are repeatedly washed by gentle mixing with PBS, and centrifugation until the upper phase is clear. In the last wash, 40 ml of 1×PBS with 0.05% BSA was added to half of the red blood cells while 40 ml of 1×PBS without BSA was added to the other half. The upper phase of the last wash was removed to leave a total volume of about 10 ml. The concentration of the red blood cells was measured by using the spectrophometer at 600 nm. An aliquot of the cells are diluted to a final density OD600 of 24 in 1×PBS, and another to a final density OD600 of 24 in 1×PBS with 0.05% BSA.
The compound NOVO4 is two-fold serially diluted (similar to that described above for mammalian NIH3T3 cytotoxicity assay) as 100× concentration in DMSO, ranging from 0.4 μg/ml to 400 μg/ml. […] After thorough mixing, the A450 was read using a Spectramax Plus Spectrophotometer, using wells with only 1×PBS as blanks. […]

CC1\C=C/C=C\C=C/C=C\C=C/C(OC2OCC(O)C(O)C2N)C(C)(O)/C=C/C=C\C=C/C=C/C(=O)NC1 (stereo not shown) [NOVO4]
MIC (E. faecium E4So1; MHB): 2 µg/mL (≈ 3.81 µM)
MIC (E. faecium E4So1; MHB + 0.05% BSA): 1 µg/mL
MIC (E. faecium E4So1; MHB + 10% FCS): 1 µg/mL
MIC (MSSA (ATCC 13709); MHB + 0.05% BSA): 0.25 µg/mL
MIC (MSSA (ATCC 13709); Staphylococcus aureus, MHB + 10% FCS): 0.25 to 0.5 µg/mL
MIC (MSSA (ATCC 13709); Staphylococcus aureus, MHB, read-out: MIC): 0.25 µg/mL (≈ 0.477 µM)
MIC (E. faecium (VRE JM89); MHB): 4 µg/mL (≈ 7.62 µM)
MIC (E. faecium (VRE JM89); MHB + 0.05% BSA): 2 µg/mL
MIC (E. faecium (VRE JM89); MHB + 10% FCS): 2 µg/mL
MIC (B. anthracis sterne; MHB): 0.25 to 0.5 µg/mL (≈ 0.477 to 0.953 µM)
MIC (B. anthracis sterne; MHB + 0.05% BSA): 0.125 to 0.5 µg/mL
MIC (B. anthracis sterne; MHB + 10% FCS): 0.25 to 0.5 µg/mL
MIC (MRSA NRS1; MHB): 2 to 4 µg/mL (≈ 3.81 to 7.62 µM)
MIC (MRSA NRS1; MHB + 0.05% BSA): 0.5 µg/mL
MIC (MRSA NRS1; MHB + 10% FCS): 1 µg/mL
MIC (MRSA NRS108; MHB): 1 to 8 µg/mL (≈ 1.91 to 15.2 µM)
MIC (MRSA NRS108; MHB + 0.05% BSA): 2 µg/mL
MIC (MRSA NRS108; MHB + 10% FCS): 0.5 to 2 µg/mL
MIC (E. faecium MG1953; MHB): 2 to 4 µg/mL (≈ 3.81 to 7.62 µM)
MIC (E. faecium MG1953; MHB + 0.05% BSA): 1 to 2 µg/mL
MIC (E. faecium MG1953; MHB + 10% FCS): 2 µg/mL
MIC (S. pneumoniae BAA225; MHB): 1 to 2 µg/mL (≈ 1.91 to 3.81 µM)
MIC (S. pneumoniae BAA225; MHB + 0.05% BSA): 1 to 2 µg/mL
MIC (S. pneumoniae BAA225; MHB + 10% FCS): 2 to 4 µg/mL
MIC (B. subtilis 1A1; MHB): 0.06 to 1 µg/mL (≈ 0.114 to 1.91 µM)
MIC (B. subtilis 1A1; MHB + 0.05% BSA): 0.125 µg/mL
MIC (B. subtilis 1A1; MHB + 10% FCS): 0.06 to 0.5 µg/mL
LD50 [1]: > 16 µg/mL
solubility (physchem; aqueous with cosolvent or surfactant or cyclodextrin): 300 µg/mL (≈ 572 µM)
solubility (physchem; organic solvent or mixture): > 5000 µg/mL
effect of calf bovine serum on the MIC (MRSA and VRE): no significant effect
MIC (E. faecalis (VRE BM4147); MHB): 2 to 4 µg/mL (≈ 3.81 to 7.62 µM)
MIC (E. faecalis (VRE BM4147); MHB + 0.05% BSA): 1 to 2 µg/mL
MIC (E. faecalis (VRE BM4147); MHB + 10% FCS): 2 µg/mL
minimal concentration in which a 5 μL aliquot spotted onto a lawn of growing bacteria results in an observable zone of no growth (bacterial cells): 0.67 µg/mL

Triton X100
A450 (hemoglobin released) (human red blood cells): 0.41
lysis of red blood cells (human red blood cells): complete lysis
